Like-named read-outs stand apart in the source and are kept apart here. Some results are limits rather than exact numbers.

By IC50 is commonly meant the concentration at which inhibition is half-maximal.

The target in experiment [1] is T1, transglutaminase 2 (TGase 2) (Homo sapiens, UniProt P21980).
T1 sequence (P21980 1-687): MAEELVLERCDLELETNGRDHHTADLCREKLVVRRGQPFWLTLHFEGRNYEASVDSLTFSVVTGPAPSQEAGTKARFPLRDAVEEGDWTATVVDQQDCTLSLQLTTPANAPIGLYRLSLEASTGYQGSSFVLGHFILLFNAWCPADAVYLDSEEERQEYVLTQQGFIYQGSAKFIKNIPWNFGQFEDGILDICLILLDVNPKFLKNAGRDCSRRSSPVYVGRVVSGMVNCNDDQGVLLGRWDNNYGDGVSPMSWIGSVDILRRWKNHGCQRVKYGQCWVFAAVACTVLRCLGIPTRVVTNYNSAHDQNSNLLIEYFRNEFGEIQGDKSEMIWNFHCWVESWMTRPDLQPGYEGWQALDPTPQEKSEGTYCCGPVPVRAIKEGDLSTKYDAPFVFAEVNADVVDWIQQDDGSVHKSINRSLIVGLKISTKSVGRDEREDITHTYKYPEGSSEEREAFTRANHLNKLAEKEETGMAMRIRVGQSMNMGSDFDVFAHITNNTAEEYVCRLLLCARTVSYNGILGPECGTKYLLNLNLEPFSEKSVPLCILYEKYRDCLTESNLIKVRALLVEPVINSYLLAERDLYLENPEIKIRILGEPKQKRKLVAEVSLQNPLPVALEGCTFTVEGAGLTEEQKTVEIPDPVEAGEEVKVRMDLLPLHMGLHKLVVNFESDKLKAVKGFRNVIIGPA
Kind of experiment: TGase 2 transpeptidase fluorescence assay: incorporation of KXD into N,N-dimethylated-casein (Std and FPC formats). Type of experiment: biochemical. Here is the method: Transpeptidase activity was monitored as the increase in fluorescence intensity (FI) that accompanies incorporation of the dansylated Lys derivative, α-N-Boc-Lys-CH2-CH2-dansyl (KXD), into the protein substrate, N,N-dimethylated-casein (NMC).
Therefore, a method was used in which full progress curves (FPC) were recorded for the TGase-catalyzed reaction of KXD with NMC in the presence of inhibitor (Table 1-4). Reactions were initiated by enzyme addition to a solution of substrate and inhibitor. […] From such progress curves, IC50 values were calculated using the following equation: IC50=[I]/{(vc/vss)−1}. Progress curves recorded at several inhibitor concentrations were used to determine FPC IC50 values (Table 1-4).

Experiment [2] has as its target T1, transglutaminase 2 (TGase 2). The experiment is described as above. Type of experiment: biochemical. The settings on record: standard format (Std): reactions terminated after 60 min, FI recorded, four-parameter fit.

For the compound `Cc1sc2nc(SCC(=O)NN)n(-c3ccccc3)c(=O)c2c1-c1ccccc1` [986-13, (6-Methyl-4-oxo-3,5-diphenyl-3,4-dihydrothieno[2,3-d]pyrimidin-2-ylsulfanyl)acetic acid hydrazide], the IC50 in experiment [1] (full progress curves (FPC), IC50=[I]/{(vc/vss)−1}, from steady-state velocity, read-out: IC50 (μM, FPC)) is 0.16 µM; in experiment [1] (summary of FPC values, read-out: FPC IC50 values), less than 0.16 µM; in experiment [2] it was 1.5 µM. The “TGase 2 inhibitory activity, SAR comment in words (relative to parent compound)” value in experiment [1] (qualitative comparison) was “increased activity”.
